Our source for the IC50 values is US12384788B2, “1,4-dihydrobenzo[d]pyrazolo[3,4-f][1,3]diazepine derivatives and related compounds as LRRK2, NUAK1 and/or TYK2 kinase modulators for the treatment of e.g. autoimmune disease” (Origenis GMBH, priority 2019, dated 2025).

The structures appear in SMILES notation. pIC50: −log10 of the molar value.

The assay concerns the target T1, wt human TYK2, catalytic site (Homo sapiens, UniProt P29597).
T1 construct: wt human TYK2, catalytic site; purchased SignalChem
T1 sequence (P29597 897-1176 limits assumed): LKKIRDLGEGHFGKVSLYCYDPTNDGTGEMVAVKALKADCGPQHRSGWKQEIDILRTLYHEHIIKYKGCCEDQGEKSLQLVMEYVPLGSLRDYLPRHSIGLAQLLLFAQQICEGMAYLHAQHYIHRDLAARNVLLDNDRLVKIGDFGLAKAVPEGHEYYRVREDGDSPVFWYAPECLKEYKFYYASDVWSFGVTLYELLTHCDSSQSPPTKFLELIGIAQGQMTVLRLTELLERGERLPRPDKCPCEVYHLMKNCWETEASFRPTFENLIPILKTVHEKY
As to the kind of experiment: HTRF KinEASE assay, TYK2. The assay is classed as biochemical. As to conditions: 1 μM ATP; read-out: IC50, inhibitory activity toward TYK2. The protocol:
Basic protocol for HTRF KinEASE assay (Cisbio/FRA) inhibitor studies involved two steps:
Enzymatic step: Addition of 4 μl of test compound in corresponding DMSO dilutions, 4 μl of kinase/substrate mixture, 2 μl of ATP into 384 well small volume plates. Incubation for at least 30 minutes at room temperature.
Detection step: Addition of 5 μl antibody and 5 μl streptavidin-XL665, read plate after 60 minutes. Data analysis of emission ratios according to KinEASE assay protocol.
Kinase and assay components were adjusted to final concentrations according to the kit protocol. For TYK2: 2 nM wt human TYK2, catalytic site (SignalChem/CAN), 1 μM HTRF KinEASE-TK Substrate-biotin, 1 μM ATP in 1× Kinase Buffer
A general note: In TR-FRET formats the signal depends on donor and acceptor labels being close together.

Regarding `Fc1cccc(Cl)c1C1=Nc2cn[nH]c2-c2[nH]ncc2N1` [Compound 89, 5-(2-chloro-6-fluorophenyl)-4,9-dihydro-1H-dipyrazolo[4,3-d:3′,4′-f][1,3]diazepine], the pIC50 was 7.00 to 8.00.

The pIC50 is −log10 of the IC50, conventionally taken in molar units.
